This experiment concerns the target T1, epithelial sodium channel (ENaC) (Homo sapiens, UniProt P37088+P51168+P51170).
T1 construct: host or cells: primary Human Bronchial Epithelial cells (HBECs), air-liquid interface culture
T1 sequence (P37088 1-669): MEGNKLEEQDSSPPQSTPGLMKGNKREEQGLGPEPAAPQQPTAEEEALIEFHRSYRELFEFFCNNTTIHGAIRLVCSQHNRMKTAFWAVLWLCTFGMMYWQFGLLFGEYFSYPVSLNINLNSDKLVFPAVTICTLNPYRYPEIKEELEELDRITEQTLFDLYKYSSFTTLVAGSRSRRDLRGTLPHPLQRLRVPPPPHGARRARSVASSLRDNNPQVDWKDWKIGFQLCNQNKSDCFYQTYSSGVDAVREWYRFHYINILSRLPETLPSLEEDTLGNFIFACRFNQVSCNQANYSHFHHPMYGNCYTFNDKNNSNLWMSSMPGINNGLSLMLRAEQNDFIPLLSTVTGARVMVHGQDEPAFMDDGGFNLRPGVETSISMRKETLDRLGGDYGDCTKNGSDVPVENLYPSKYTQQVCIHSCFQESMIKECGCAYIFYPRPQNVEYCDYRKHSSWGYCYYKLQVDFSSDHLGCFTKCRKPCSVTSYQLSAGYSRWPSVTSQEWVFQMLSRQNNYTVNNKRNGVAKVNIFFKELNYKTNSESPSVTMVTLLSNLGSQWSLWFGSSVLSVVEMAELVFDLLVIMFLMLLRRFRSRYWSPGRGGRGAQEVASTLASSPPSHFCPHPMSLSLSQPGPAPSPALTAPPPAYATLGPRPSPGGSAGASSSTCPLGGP
T1 sequence (P51168 1-640): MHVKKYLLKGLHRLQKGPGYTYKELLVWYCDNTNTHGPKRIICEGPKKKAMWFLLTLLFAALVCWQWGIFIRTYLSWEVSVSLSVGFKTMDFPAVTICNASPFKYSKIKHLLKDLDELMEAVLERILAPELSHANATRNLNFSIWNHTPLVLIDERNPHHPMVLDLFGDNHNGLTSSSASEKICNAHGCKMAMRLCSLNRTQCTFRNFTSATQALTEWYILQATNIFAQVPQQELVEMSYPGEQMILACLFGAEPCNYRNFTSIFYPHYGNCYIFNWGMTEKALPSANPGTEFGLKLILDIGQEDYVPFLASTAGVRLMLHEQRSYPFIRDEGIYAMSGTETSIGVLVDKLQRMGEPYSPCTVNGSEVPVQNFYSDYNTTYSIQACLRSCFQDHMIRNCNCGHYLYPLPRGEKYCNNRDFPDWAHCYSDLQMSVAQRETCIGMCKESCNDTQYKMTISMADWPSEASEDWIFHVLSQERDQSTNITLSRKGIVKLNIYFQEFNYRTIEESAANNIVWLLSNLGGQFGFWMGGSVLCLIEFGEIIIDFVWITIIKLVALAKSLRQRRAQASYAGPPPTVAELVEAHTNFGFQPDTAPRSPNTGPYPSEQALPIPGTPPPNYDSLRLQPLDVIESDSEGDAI
T1 sequence (P51170 1-649): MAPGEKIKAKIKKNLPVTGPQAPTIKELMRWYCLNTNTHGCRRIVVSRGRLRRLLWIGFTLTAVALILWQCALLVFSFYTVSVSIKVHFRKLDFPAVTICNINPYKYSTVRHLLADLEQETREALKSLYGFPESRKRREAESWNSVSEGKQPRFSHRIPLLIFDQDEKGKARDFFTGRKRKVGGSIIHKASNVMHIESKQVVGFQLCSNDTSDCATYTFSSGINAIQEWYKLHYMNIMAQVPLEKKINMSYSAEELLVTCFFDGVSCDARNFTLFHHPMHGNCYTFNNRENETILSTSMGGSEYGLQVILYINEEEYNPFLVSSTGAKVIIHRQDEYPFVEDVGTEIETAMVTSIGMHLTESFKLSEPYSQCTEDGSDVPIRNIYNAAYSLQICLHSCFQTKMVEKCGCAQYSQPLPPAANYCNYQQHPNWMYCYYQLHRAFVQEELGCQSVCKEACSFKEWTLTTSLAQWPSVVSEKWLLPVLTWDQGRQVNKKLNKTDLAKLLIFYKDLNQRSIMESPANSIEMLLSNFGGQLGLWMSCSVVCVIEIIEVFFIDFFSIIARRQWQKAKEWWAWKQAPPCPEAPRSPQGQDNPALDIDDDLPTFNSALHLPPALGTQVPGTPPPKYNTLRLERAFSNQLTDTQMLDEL
Kind of experiment: Short circuit current (ISC) measurements in Human Bronchial Epithelial cells, inhibition of amiloride-sensitive ISC. The experiment is classed as cell-based. Particulars: inhibition of the amiloride-sensitive ISC; Human Bronchial Epithelial cells (HBECs) at air-liquid interface; compound added to apical chamber; read-out: IC50. The procedure:
Compounds of formula (I) and their pharmaceutically acceptable salts, hereinafter referred to alternatively as “agents of the invention”, are useful as pharmaceuticals. In particular, the compounds have good ENaC blocker activity and may be tested in the following assays.
Human Bronchial Epithelial cells (HBECs) (Cambrex) were cultured under air-liquid interface conditions to provide a well differentiated mucociliary phenotype.
HBECs were cultured using a modification of the method described by Gray and colleagues (Gray et al., 1996). Cells were seeded in plastic T-162 flasks and were grown in bronchial epithelial cell growth medium (BEGM; Cambrex) supplemented with bovine pituitary extract (52 μg/mL), hydrocortisone (0.5 μg/mL), human recombinant epidermal growth factor (0.5 ng/mL), epinephrine (0.5 μg/mL), transferrin (10 μg/mL), insulin (5 μg/mL), retinoic acid (0.1 μg/mL), triiodothyronine ([…]), gentamycin (50 μg/mL) and amphotericin B (50 ng/mL). Medium was changed every 48 hours until cells were 90% confluent. Cells were then passaged and seeded (8.25×10^5 cells/insert) on polycarbonate Snapwell inserts (Costar) in differentiation media containing 50% DMEM in BEGM with the same supplements as above but without triiodothyronine and a final retinoic acid concentration of 50 nM (all-trans retinoic acid). Cells were maintained submerged for the first 7 days in culture, after which time they were exposed to an apical air interface for the remainder of the culture period. At this time, media was changed to DMEM:F12 media containing 2% v/v Ultroser G for the remainder of culture. Amphotericin B was removed from all media 3 feeds prior to use in the Using Chambers. Cells were used between days 7 and 21 after establishment of the apical-air interface. At all stages of culture, cells were maintained at 37° C. in 5% CO2 in an air incubator.
Short Circuit Current (ISC) Measurements
Snapwell inserts were mounted in Vertical Diffusion Chambers (Costar) and were bathed with continuously gassed Ringer solution (5% CO2 in O2; pH 7.4) maintained at 37° C. containing (in mM): 120 NaCl, 25 NaHCO3, 3.3 KH2PO4, 0.8 K2HPO4, 1.2 CaCl2, 1.2 MgCl2, and 10 glucose. The solution osmolarity was between 280 and 300 mOsmol/kg H2O for all physiological salt solutions used. Cells were voltage clamped to 0 mV (model EVC4000; WPI). RT was measured by applying a 1- or 2-mV pulse at 30-s intervals and calculating RT by Ohm's law. Data were recorded using a PowerLab workstation (ADInstruments).
Test compounds were prepared as a 10 mM stock solution in DMSO (95%). Serial 3-fold dilutions were freshly prepared in an appropriate vehicle (distilled H2O or Ringers solution). The initial concentration was added to the apical chamber as a 1000× concentrate in 5 μL, resulting in a final 1× concentration the 5 mL volume of the Ussing chamber. Subsequent additions of compound were added in a 3.3 μL volume of the 1000× serially diluted stock solution. At the completion of the concentration-response experiment, amiloride (10 μM) was added into the apical chamber to enable the total amiloride-sensitive current to be measured. An amiloride control IC50 was established at the start of each experiment.
Results are expressed as the mean % inhibition of the amiloride-sensitive ISC. Concentration-response curves were plotted and IC50 values generated using GraphPad Prism 3.02. Cell inserts were typically run in duplicate and the IC50 calculated on the mean % inhibition data.
On to `CCOC(=O)C1CCCN(S(=O)(=O)c2cccc(C(=O)N3CCC4(CC3)CN/C(=N\C(=O)c3nc(Cl)c(N)nc3N)N4)c2)C1` (centres unmarked) [Example 128, 1-(3-{2-[(E)-3,5-Diamino-6-chloro-pyrazine-2-carbonylimino]-1,3,8-triaza-spiro[4.5]decane-8-carbonyl}-benzenesulfonyl)-piperidine-3-carboxylic acid ethyl ester], for which the IC50 (as a rule, the concentration needed to halve the response being measured) worked out at 11.5 nM.
On to `CC(C)(C)OC(=O)c1ccc(C(=O)N2CCC3(CC2)CN/C(=N\C(=O)c2nc(Cl)c(N)nc2N)N3)cc1` [Example 76, 4-{2-[(E)-3,5-Diamino-6-chloro-pyrazine-2-carbonylimino]-1,3,8-triaza-spiro[4.5]decane-8-carbonyl}-benzoic acid tert-butyl ester], for which the IC50 amounted to 12 nM.
To `Nc1nc(N)c(C(=O)/N=C2\NCC3(CCN(C(=O)NCCCc4ccccn4)CC3)N2)nc1Cl` [Example 228, 2-[(E)-3,5-Diamino-6-chloro-pyrazine-2-carbonylimino]-1,3,8-triaza-spiro[4.5]decane-8-carboxylic acid (3-pyridin-2-yl-propyl)-amide] belongs 93.5 nM.
To `Cc1nc(-c2ccccc2)ncc1C(=O)N1CCC2(CC1)CN/C(=N\C(=O)c1nc(Cl)c(N)nc1N)N2` [Example 58, 3,5-Diamino-6-chloro-pyrazine-2-carboxylic acid [8-(4-methyl-2-phenyl-pyrimidine-5-carbonyl)-1,3,8-triaza-spiro[4.5]dec-(2E)-ylidene]-amide] belongs 143 nM; to `Cc1oc(-c2ccccc2)nc1COc1ccc(S(=O)(=O)N2CCC3(CC2)CN/C(=N\C(=O)c2nc(Cl)c(N)nc2N)N3)cc1` [Example 238, 3,5-Diamino-6-chloro-pyrazine-2-carboxylic acid [8-[4-(5-methyl-2-phenyl-oxazol-4-ylmethoxy)-benzenesulfonyl]-1,3,8-triaza-spiro[4.5]dec-(2E)-ylidene]-amide], 119 nM.
`CC(C)NC(=O)Nc1ccc(C(=O)N2CCC3(CC2)CN/C(=N\C(=O)c2nc(Cl)c(N)nc2N)N3)cc1` [Example 64, 3,5-Diamino-6-chloro-pyrazine-2-carboxylic acid [8-[4-(3-isopropyl-ureido)-benzoyl]-1,3,8-triaza-spiro[4.5]dec-(2E)-ylidene]-amide]: the IC50 came out at 25.5 nM.
Regarding `CC(C)OCCCNS(=O)(=O)c1cccc(C(=O)N2CCC3(CC2)CN/C(=N\C(=O)c2nc(Cl)c(N)nc2N)N3)c1` [Example 41, 3,5-Diamino-6-chloro-pyrazine-2-carboxylic acid [8-[3-(3-isopropoxy-propylsulfamoyl)-benzoyl]-1,3,8-triaza-spiro[4.5]dec-(2E)-ylidene]-amide], the IC50 came to 9.5 nM.
As for `Cn1ccc2cc(S(=O)(=O)N3CCC4(CC3)CN/C(=N\C(=O)c3nc(Cl)c(N)nc3N)N4)ccc21` [Example 235, 3,5-Diamino-6-chloro-pyrazine-2-carboxylic acid [8-(1-methyl-1H-indole-5-sulfonyl)-1,3,8-triaza-spiro[4.5]dec-(2E)-ylidene]-amide], the IC50 was 364 nM.
Turning to `Nc1nc(N)c(C(=O)/N=C2\NCC3(CCN(C(=O)NCc4ccccc4)CC3)N2)nc1Cl` [Example 215, 2-[(E)-3,5-Diamino-6-chloro-pyrazine-2-carbonylimino]-1,3,8-triaza-spiro[4.5]decane-8-carboxylic acid benzylamide], the IC50 came to 36 nM.
`Nc1nc(N)c(C(=O)/N=C2\NC[C@H](CCCCNS(=O)(=O)Cc3ccccc3)N2)nc1Cl` [Example 35, 3,5-Diamino-6-chloro-pyrazine-2-carboxylic acid [(S)-4-(4-phenylmethanesulfonylamino-butyl)-imidazolidin-(2E)-ylidene]-amide]: the IC50 came to 31 nM.
Take `Nc1nc(N)c(C(=O)/N=C2\NCC3(CCN(C(=O)c4cccc5[nH]ccc45)CC3)N2)nc1Cl` [Example 99, 3,5-Diamino-6-chloro-pyrazine-2-carboxylic acid [8-(1H-indole-4-carbonyl)-1,3,8-triaza-spiro[4.5]dec-(2E)-ylidene]-amide]: the half-maximal inhibitory concentration (IC50) was 19 nM.

The values are drawn from patent US8697687B2, “Treating diseases mediated by blockade of the epithelial sodium channel with pyrazine-2-carboxamide derivatives” (Novartis AG, priority 2007, dated 2014).
